# From patent publication US20210138025A1, “CATIONIC PEPTIDES WITH IMMUNOMODULATORY AND/OR ANTI-BIOFILM ACTIVITIES” (priority 2018, published 2021)
# Non-standard residues stand in square brackets, D forms with d. No end group written: not given here. hArg = N=C(N)NCCCC[C@H](N)C(=O)O; Agb = N=C(N)NCC[C@H](N)C(=O)O; Agp = N=C(N)NC[C@H](N)C(=O)O; Orn = NCCC[C@H](N)C(=O)O; Dab = NCC[C@H](N)C(=O)O; Dap = NC[C@H](N)C(=O)O
# Tested on: S. aureus (MRSA SAP0017)
# Type: cell-based, Staphylococcus aureus
# Conditions: SPOT synthesized control peptides, determined as in Table 5; Table 7
# Method: Methods of assessment of anti-biofilm activity: MRSA S. aureus strain SAP0017 biofilm formation was initially analyzed using a static abiotic solid surface assay as described elsewhere (de la Fuente-Nunez et al., 2012) and shown graphically in FIG. 2. Dilutions (1/100) of overnight cultures were incubated in BM2 biofilm-adjusted medium [62 mM potassium phosphate buffer (pH 7), 7 mM (NH4)2SO4, 2 mM MgSO4, 10 μM FeSO4, 0.4% (wt/vol) glucose, 0.5% (wt/vol) Casamino Acids], or a nutrient rich medium such as Tryptic soy broth supplemented with 1% glucose, in polypropylene microtiter plates (Falcon, United States) in the absence (control) or presence of peptide. Peptide was added at time zero (prior to adding the diluted, overnight cultures) in varying concentrations, and the amount biofilm formation was recorded after 22-46 h incubation for most bacteria. To quantify biofilm growth, planktonic cells were removed and biofilm cells adhering to the side of the wells were stained with crystal violet, and absorbance at 595 nm was measured using a microtiter plate reader (Bio-Tek Instruments Inc., United States).
row,Substance,% Biofilm Inhibition [%]
1,C94 (VRLIVAVR[Dap]WRR) [Peptide C94],92
2,C98 (VRLI[Dab]AVRIWRR; not fully specified (C-terminus)) [Peptide C98],103
3,C77 (VRLIVAVRI[Agb]RR; not fully specified (C-terminus); printed as VRLIVAVRIGbutRR) [Peptide C77],101
4,C91 (VRLIV[Dap]VRIWRR) [Peptide C91],76
5,C76 (VRLIVAVR[Agb]WRR; not fully specified (C-terminus); printed as VRLIVAVRGbutWRR) [Peptide C76],104
6,C101 (VRLIVAV[Dab]IWRR-NH2; N-terminus assumed; SMILES CC[C@H](C)[C@H](NC(=O)[C@H](CCN)NC(=O)[C@@H](NC(=O)[C@H](C)NC(=O)[C@@H](NC(=O)[C@@H](NC(=O)[C@H](CC(C)C)NC(=O)[C@H](CCCNC(=N)N)NC(=O)[C@@H](N)C(C)C)[C@@H](C)CC)C(C)C)C(C)C)C(=O)N[C@@H](Cc1c[nH]c2ccccc12)C(=O)N[C@@H](CCCNC(=N)N)C(=O)N[C@@H](CCCNC(=N)N)C(N)=O) [Peptide C101],103
7,C92 (VRLIVA[Dap]RIWRR) [Peptide C92],103
8,C67 (VRLIVAVRIW[Agp]R-NH2; N-terminus assumed; SMILES CC[C@H](C)[C@H](NC(=O)[C@H](CCCNC(=N)N)NC(=O)[C@@H](NC(=O)[C@H](C)NC(=O)[C@@H](NC(=O)[C@@H](NC(=O)[C@H](CC(C)C)NC(=O)[C@H](CCCNC(=N)N)NC(=O)[C@@H](N)C(C)C)[C@@H](C)CC)C(C)C)C(C)C)C(=O)N[C@@H](Cc1c[nH]c2ccccc12)C(=O)N[C@@H](CNC(=N)N)C(=O)N[C@@H](CCCNC(=N)N)C(N)=O) [Peptide C67],105
9,C72 (VRLI[Agb]AVRIWRR; not fully specified (C-terminus); printed as VRLIGbutAVRIWRR) [Peptide C72],105
10,C105 (VRLIVAVRIWR[Dab]) [Peptide C105],96
11,C102 (VRLIVAVR[Dab]WRR-NH2; N-terminus assumed; SMILES CC[C@H](C)[C@H](NC(=O)[C@H](CC(C)C)NC(=O)[C@H](CCCNC(=N)N)NC(=O)[C@@H](N)C(C)C)C(=O)N[C@H](C(=O)N[C@@H](C)C(=O)N[C@H](C(=O)N[C@@H](CCCNC(=N)N)C(=O)N[C@@H](CCN)C(=O)N[C@@H](Cc1c[nH]c2ccccc12)C(=O)N[C@@H](CCCNC(=N)N)C(=O)N[C@@H](CCCNC(=N)N)C(N)=O)C(C)C)C(C)C) [Peptide C102],104
12,C86 (VRLIVAVRI[hArg]RR) [Peptide C86],75
13,C83 (VRLI[hArg]AVRIWRR) [Peptide C83],106
14,C60 (VRL[Agp]VAVRIWRR-NH2; N-terminus assumed; SMILES CC[C@H](C)[C@H](NC(=O)[C@H](CCCNC(=N)N)NC(=O)[C@@H](NC(=O)[C@H](C)NC(=O)[C@@H](NC(=O)[C@H](CNC(=N)N)NC(=O)[C@H](CC(C)C)NC(=O)[C@H](CCCNC(=N)N)NC(=O)[C@@H](N)C(C)C)C(C)C)C(C)C)C(=O)N[C@@H](Cc1c[nH]c2ccccc12)C(=O)N[C@@H](CCCNC(=N)N)C(=O)N[C@@H](CCCNC(=N)N)C(N)=O) [Peptide C60],104
15,C78 (VRLIVAVRIW[Agb]R; not fully specified (C-terminus); printed as VRLIVAVRIWGbutR) [Peptide C78],101
16,C106 (VR[Orn]IVAVRIWRR-NH2; N-terminus assumed; SMILES CC[C@H](C)[C@H](NC(=O)[C@H](CCCNC(=N)N)NC(=O)[C@@H](NC(=O)[C@H](C)NC(=O)[C@@H](NC(=O)[C@@H](NC(=O)[C@H](CCCN)NC(=O)[C@H](CCCNC(=N)N)NC(=O)[C@@H](N)C(C)C)[C@@H](C)CC)C(C)C)C(C)C)C(=O)N[C@@H](Cc1c[nH]c2ccccc12)C(=O)N[C@@H](CCCNC(=N)N)C(=O)N[C@@H](CCCNC(=N)N)C(N)=O) [Peptide C106],104
17,C85 (VRLIVAVR[hArg]WRR) [Peptide C85],99
18,C58 (V[Agp]LIVAVRIWRR) [Peptide C58],96
19,C109 (VRLIVA[Orn]RIWRR-NH2; N-terminus assumed; SMILES CC[C@H](C)[C@H](NC(=O)[C@H](CCCNC(=N)N)NC(=O)[C@H](CCCN)NC(=O)[C@H](C)NC(=O)[C@@H](NC(=O)[C@@H](NC(=O)[C@H](CC(C)C)NC(=O)[C@H](CCCNC(=N)N)NC(=O)[C@@H](N)C(C)C)[C@@H](C)CC)C(C)C)C(=O)N[C@@H](Cc1c[nH]c2ccccc12)C(=O)N[C@@H](CCCNC(=N)N)C(=O)N[C@@H](CCCNC(=N)N)C(N)=O) [Peptide C109],104

# Same assay, conditions: SPOT synthesized peptide, ~12.5 μM, clinical MRSA strain, crystal violet assay
row,Substance,% Residual MRSA biofilm growth compared to untreated control [%]
1,IVKWIAQWKLVG (IVKWIAQWKLVG-NH2) [Imax-10],100
2,KKQKKIWRRILV (KKQKKIWRRILV-NH2) [Mmax-16],105
3,DabRLIVAVRIWRR ([Dab]RLIVAVRIWRR-NH2; N-terminus assumed; SMILES CC[C@H](C)[C@H](NC(=O)[C@H](CCCNC(=N)N)NC(=O)[C@@H](NC(=O)[C@H](C)NC(=O)[C@@H](NC(=O)[C@@H](NC(=O)[C@H](CC(C)C)NC(=O)[C@H](CCCNC(=N)N)NC(=O)[C@@H](N)CCN)[C@@H](C)CC)C(C)C)C(C)C)C(=O)N[C@@H](Cc1c[nH]c2ccccc12)C(=O)N[C@@H](CCCNC(=N)N)C(=O)N[C@@H](CCCNC(=N)N)C(N)=O) [Peptide 1018-k13],59
4,VRLIVAVOrnIWRR (VRLIVAV[Orn]IWRR-NH2; N-terminus assumed; SMILES CC[C@H](C)[C@H](NC(=O)[C@H](CCCN)NC(=O)[C@@H](NC(=O)[C@H](C)NC(=O)[C@@H](NC(=O)[C@@H](NC(=O)[C@H](CC(C)C)NC(=O)[C@H](CCCNC(=N)N)NC(=O)[C@@H](N)C(C)C)[C@@H](C)CC)C(C)C)C(C)C)C(=O)N[C@@H](Cc1c[nH]c2ccccc12)C(=O)N[C@@H](CCCNC(=N)N)C(=O)N[C@@H](CCCNC(=N)N)C(N)=O) [Peptide 1018-k32],46
5,VKGAIKRGIWVK (VKGAIKRGIWVK-NH2) [Imax-5],99
6,OrnRLIVAVRIWRR ([Orn]RLIVAVRIWRR-NH2; N-terminus assumed; SMILES CC[C@H](C)[C@H](NC(=O)[C@H](CCCNC(=N)N)NC(=O)[C@@H](NC(=O)[C@H](C)NC(=O)[C@@H](NC(=O)[C@@H](NC(=O)[C@H](CC(C)C)NC(=O)[C@H](CCCNC(=N)N)NC(=O)[C@@H](N)CCCN)[C@@H](C)CC)C(C)C)C(C)C)C(=O)N[C@@H](Cc1c[nH]c2ccccc12)C(=O)N[C@@H](CCCNC(=N)N)C(=O)N[C@@H](CCCNC(=N)N)C(N)=O) [Peptide 1018-k25],44
7,GbutRLIVAVRIWRR ([Agb]RLIVAVRIWRR-NH2; N-terminus assumed; SMILES CC[C@H](C)[C@H](NC(=O)[C@H](CCCNC(=N)N)NC(=O)[C@@H](NC(=O)[C@H](C)NC(=O)[C@@H](NC(=O)[C@@H](NC(=O)[C@H](CC(C)C)NC(=O)[C@H](CCCNC(=N)N)NC(=O)[C@@H](N)CCNC(=N)N)[C@@H](C)CC)C(C)C)C(C)C)C(=O)N[C@@H](Cc1c[nH]c2ccccc12)C(=O)N[C@@H](CCCNC(=N)N)C(=O)N[C@@H](CCCNC(=N)N)C(N)=O) [Peptide 1018-r13],47
